Experimental data: the supplement of paper PMC11451515

Legend:
P12-Ichikawa [1] = assay: AUC of viability dose-response curve (% viability x log10 dose units); higher = less sensitive; settings: 48 h
In short: (§1)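 Leukemia cells adapted to each medium were seeded at 500 or 1000 cells/well in 1536-well plates and dosed with library compounds in DMSO at 11 threefold doses from 47 μM to 0.79 nM for 48 h at 37°C. CellTiter-Glo One luminescence was normalised per plate to DMSO and cell-free wells, then fitted with a four-parameter log-logistic model over log10 doses. Area under the curve was taken from this fit by the trapezoidal rule, with curves above full viability scaled and curves failing quality control removed.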

NOMO1 [2] = assay: as above; settings: 48 h
In short: as §1

SEM cells [3] = assay: as above; settings: 48 h
In short: as §1

SEM cells [4] = assay: cell viability relative to DMSO control; higher = less cytotoxic; settings: 48 h
In short: (§2)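 Viability was expressed as a per-plate percentage of DMSO wells, with cell-free wells as background. Leukemia cells (NOMO1 or SEM at 500 cells/well, P12-Ichikawa at 1000 cells/well) were adapted for at least four passages in each medium and seeded in 1536-well plates (5 μl). Library compounds in DMSO were pin-dosed over an 11-point threefold series from 47 μM to 0.79 nM, and CellTiter-Glo One luminescence was read after 48 h at 37°C.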

P12-Ichikawa [5] = assay: as above; settings: HPLM + 10% dialyzed FBS, 48 h
In short: as §2

NOMO1 [6] = assay: as above; settings: RPMI 5 mM glucose + 10% FBS, 48 h
In short: as §2

[7] = RPMI 5 mM glucose + 10% dialyzed FBS
[8] = RPMI 5 mM glucose + 10% FBS, 0.000781 µM
[9] = RPMI 5 mM glucose + 10% FBS, 0.00234 µM
[10] = RPMI 5 mM glucose + 10% FBS, 0.00702 µM
[11] = RPMI 5 mM glucose + 10% FBS, 0.0211 µM
[12] = RPMI 5 mM glucose + 10% FBS, 0.0632 µM
[13] = RPMI 5 mM glucose + 10% FBS, 0.19 µM
[14] = RPMI 5 mM glucose + 10% FBS, 0.569 µM
[15] = RPMI 5 mM glucose + 10% FBS, 1.71 µM
[16] = RPMI 5 mM glucose + 10% FBS, 5.12 µM
[17] = RPMI 5 mM glucose + 10% FBS, 15.4 µM
[18] = RPMI 5 mM glucose + 10% FBS, 46.1 µM
[19] = HPLM + 10% dialyzed FBS, 0.000781 µM
[20] = HPLM + 10% dialyzed FBS, 0.00234 µM
[21] = HPLM + 10% dialyzed FBS, 0.00702 µM
[22] = HPLM + 10% dialyzed FBS, 0.0211 µM
[23] = HPLM + 10% dialyzed FBS, 0.0632 µM
[24] = HPLM + 10% dialyzed FBS, 0.19 µM
[25] = HPLM + 10% dialyzed FBS, 0.569 µM
[26] = HPLM + 10% dialyzed FBS, 1.71 µM
[27] = HPLM + 10% dialyzed FBS, 5.12 µM
[28] = HPLM + 10% dialyzed FBS, 15.4 µM
[29] = HPLM + 10% dialyzed FBS, 46.1 µM

Nc1cccc2c1C(=O)N(C1CCC(=O)NC1=O)C2=O (stereo unspecified)
AUC of viability dose-response curve (P12-Ichikawa [1]; HPLM + 10% dialyzed FBS): 436 | AUC of viability dose-response curve (P12-Ichikawa [1]; RPMI 5 mM glucose + 10% FBS): 448 | AUC of viability dose-response curve (P12-Ichikawa [1]; [7]): 450 | AUC of viability dose-response curve (NOMO1 [2]; HPLM + 10% dialyzed FBS): 462 | AUC of viability dose-response curve (NOMO1 [2]; RPMI 5 mM glucose + 10% FBS): 452 | AUC of viability dose-response curve (NOMO1 [2]; [7]): 466 | AUC of viability dose-response curve (SEM cells [3]; HPLM + 10% dialyzed FBS): 462 | AUC of viability dose-response curve (SEM cells [3]; RPMI 5 mM glucose + 10% FBS): 349 | AUC of viability dose-response curve (SEM cells [3]; [7]): 388 | cell viability (SEM cells [4]; [8]): 117% | cell viability (SEM cells [4]; [9]): 126% | cell viability (SEM cells [4]; [10]): 103% | cell viability (SEM cells [4]; [11]): 98% | cell viability (SEM cells [4]; [12]): 96.9% | cell viability (SEM cells [4]; [13]): 93.9% | cell viability (SEM cells [4]; [14]): 76.6% | cell viability (SEM cells [4]; [15]): 72.5% | cell viability (SEM cells [4]; [16]): 80.2% | cell viability (SEM cells [4]; [17]): 64.1% | cell viability (SEM cells [4]; [18]): 37.7%

CN(C)c1cc(NC(=O)CNC(C)(C)C)c(O)c2c1C[C@H]1C[C@H]3[C@H](N(C)C)C(O)=C(C(N)=O)C(=O)[C@@]3(O)C(O)=C1C2=O
AUC of viability dose-response curve (P12-Ichikawa [1]; HPLM + 10% dialyzed FBS): 457 | AUC of viability dose-response curve (P12-Ichikawa [1]; RPMI 5 mM glucose + 10% FBS): 470 | AUC of viability dose-response curve (P12-Ichikawa [1]; [7]): 454 | AUC of viability dose-response curve (NOMO1 [2]; HPLM + 10% dialyzed FBS): 466 | AUC of viability dose-response curve (NOMO1 [2]; RPMI 5 mM glucose + 10% FBS): 471 | AUC of viability dose-response curve (NOMO1 [2]; [7]): 457 | AUC of viability dose-response curve (SEM cells [3]; HPLM + 10% dialyzed FBS): 452 | AUC of viability dose-response curve (SEM cells [3]; RPMI 5 mM glucose + 10% FBS): 453 | AUC of viability dose-response curve (SEM cells [3]; [7]): 436

O=C(O)CCCc1c[nH]c2ccccc12
AUC of viability dose-response curve (P12-Ichikawa [1]; HPLM + 10% dialyzed FBS): 468 | AUC of viability dose-response curve (P12-Ichikawa [1]; RPMI 5 mM glucose + 10% FBS): 431 | AUC of viability dose-response curve (P12-Ichikawa [1]; [7]): 452 | AUC of viability dose-response curve (SEM cells [3]; HPLM + 10% dialyzed FBS): 468 | AUC of viability dose-response curve (SEM cells [3]; RPMI 5 mM glucose + 10% FBS): 441 | AUC of viability dose-response curve (SEM cells [3]; [7]): 431 | cell viability (SEM cells [4]; [19]): 111% | cell viability (SEM cells [4]; [20]): 122% | cell viability (SEM cells [4]; [21]): 130% | cell viability (SEM cells [4]; [22]): 144% | cell viability (SEM cells [4]; [23]): 105% | cell viability (SEM cells [4]; [24]): 113% | cell viability (SEM cells [4]; [25]): 102% | cell viability (SEM cells [4]; [26]): 124% | cell viability (SEM cells [4]; [27]): 138% | cell viability (SEM cells [4]; [28]): 131% | cell viability (SEM cells [4]; [29]): 97.9%

Nc1ncnc2c1nc(Cl)n2[C@@H]1O[C@H](CO)[C@@H](O)[C@H]1O
AUC of viability dose-response curve (P12-Ichikawa [1]; HPLM + 10% dialyzed FBS): 454 | AUC of viability dose-response curve (P12-Ichikawa [1]; RPMI 5 mM glucose + 10% FBS): 463 | AUC of viability dose-response curve (P12-Ichikawa [1]; [7]): 452 | AUC of viability dose-response curve (SEM cells [3]; HPLM + 10% dialyzed FBS): 412 | AUC of viability dose-response curve (SEM cells [3]; RPMI 5 mM glucose + 10% FBS): 419 | AUC of viability dose-response curve (SEM cells [3]; [7]): 406 | cell viability (P12-Ichikawa [5]; 0.000781 µM): 123% | cell viability (P12-Ichikawa [5]; 0.00234 µM): 125% | cell viability (P12-Ichikawa [5]; 0.00702 µM): 125% | cell viability (P12-Ichikawa [5]; 0.0211 µM): 121% | cell viability (P12-Ichikawa [5]; 0.0632 µM): 121% | cell viability (P12-Ichikawa [5]; 0.19 µM): 122% | cell viability (P12-Ichikawa [5]; 0.569 µM): 126% | cell viability (P12-Ichikawa [5]; 1.71 µM): 125% | cell viability (P12-Ichikawa [5]; 5.12 µM): 118% | cell viability (P12-Ichikawa [5]; 15.4 µM): 103% | cell viability (P12-Ichikawa [5]; 46.1 µM): 58.7% | cell viability (NOMO1 [6]; 0.000781 µM): 116% | cell viability (NOMO1 [6]; 0.00234 µM): 123% | cell viability (NOMO1 [6]; 0.00702 µM): 110% | cell viability (NOMO1 [6]; 0.0211 µM): 120% | cell viability (NOMO1 [6]; 0.0632 µM): 120% | cell viability (NOMO1 [6]; 0.19 µM): 113% | cell viability (NOMO1 [6]; 0.569 µM): 106% | cell viability (NOMO1 [6]; 1.71 µM): 110% | cell viability (NOMO1 [6]; 5.12 µM): 118% | cell viability (NOMO1 [6]; 15.4 µM): 108% | cell viability (NOMO1 [6]; 46.1 µM): 14.5% | cell viability (SEM cells [4]; [19]): 118% | cell viability (SEM cells [4]; [20]): 128% | cell viability (SEM cells [4]; [21]): 123% | cell viability (SEM cells [4]; [22]): 125% | cell viability (SEM cells [4]; [23]): 119% | cell viability (SEM cells [4]; [24]): 128% | cell viability (SEM cells [4]; [25]): 115% | cell viability (SEM cells [4]; [26]): 128% | cell viability (SEM cells [4]; [27]): 97.3% | cell viability (SEM cells [4]; [28]): 41.6% | cell viability (SEM cells [4]; [29]): 7.3% | cell viability (SEM cells [4]; [8]): 120% | cell viability (SEM cells [4]; [9]): 130% | cell viability (SEM cells [4]; [10]): 123% | cell viability (SEM cells [4]; [11]): 135% | cell viability (SEM cells [4]; [12]): 136% | cell viability (SEM cells [4]; [13]): 135% | cell viability (SEM cells [4]; [14]): 119% | cell viability (SEM cells [4]; [15]): 130% | cell viability (SEM cells [4]; [16]): 109% | cell viability (SEM cells [4]; [17]): 55% | cell viability (SEM cells [4]; [18]): 8.37%
